Measured values taken from patent EP0814162A2 (priority 1996, dated 1997).

Tests used:
[1] = tested on: hla-lacZ fusion; experiment: β-galactosidase chemiluminescent reporter assay of the chromosomal hla-lacZ fusion (hla expression); format: cell-based, S. aureus Wood 46-3; conditions: for influence on hla expression (in words): subinhibitory concentrations of antibiotics
[2] = tested on: hla mRNA; experiment: Northern blot analysis with intragenic hla probe; conditions: 0.5 µg/ml methicillin versus without antibiotic
[3] = mouse model; cited from earlier work
[4] = tested on: α-toxin; conditions: in vitro; cited from earlier work

SMILES	influence on hla expression (in words) [1]	further results
CC[C@H]1OC(=O)[C@H](C)[C@@H](O[C@H]2C[C@@](C)(OC)[C@@H](O)[C@H](C)O2)[C@H](C)[C@@H](O[C@@H]2O[C@H](C)C[C@H](N(C)C)[C@H]2O)[C@](C)(O)C[C@@H](C)C(=O)[C@H](C)[C@@H](O)[C@]1(C)O [Erythromycin]	repressed	
C[C@@H]1O[C@@H]1P(=O)(O)O [Fosfomycin]	weak stimulatary effect	
COc1cccc(OC)c1C(=O)N[C@@H]1C(=O)N2[C@@H]1SC(C)(C)[C@@H]2C(=O)O [Methicillin]	dramatically increased	increase of the β-galactosidase activity compared to medium without antibiotic ([1]; quarter of the MIC, postexponential phase): sixfold increase; amount of hla mRNA detected by Northern hybridization [2]: greater amount of hla mRNA
[Cl-].[Na+] [NaCl, sodium chloride]		β-galactosidase production ([1]; 0.8 M NaCl in LB broth, postexponential): 7800 RLU; effect on hla expression (in words) ([1]; NaCl above 1.6 M): inhibitory
Cc1onc(-c2ccccc2)c1C(=O)N[C@@H]1C(=O)N2[C@@H]1SC(C)(C)[C@@H]2C(=O)O [Oxacillin]	dramatically increased	
COc1cc(Cc2cnc(N)nc2N)cc(OC)c1OC [Trimethoprim]	weak stimulatary effect	
CN[C@H](CC(C)C)C(=O)N[C@H]1C(=O)N[C@@H](CC(N)=O)C(=O)N[C@H]2C(=O)N[C@H]3C(=O)N[C@H](C(=O)N[C@H](C(=O)O)c4cc(O)cc(O)c4-c4cc3ccc4O)[C@H](O)c3ccc(c(Cl)c3)Oc3cc2cc(c3O[C@@H]2O[C@H](CO)[C@@H](O)[C@H](O)[C@H]2O[C@H]2C[C@](C)(N)[C@H](O)[C@H](C)O2)Oc2ccc(cc2Cl)[C@H]1O [Vancomycin]	weak stimulatary effect	
CCOc1ccc2ccccc2c1C(=O)N[C@@H]1C(=O)N2[C@@H]1SC(C)(C)[C@@H]2C(=O)O [nafcillin]		lethal activity of broth filtrates [3]: increases; α-toxin production [4]: induces
